The text below walks through data of patent US12616672B2, “Methods for assessing risk of cardiovascular disease and methods and compounds for use in treating or preventing cardiovascular disease” (Queen Mary University of London, priority 2017, dated 2026).

Where “and” joins values, the source holds several entries; their conditions need not be identical. Equal entries are not always repeated.

In the test the test system is peripheral blood from healthy volunteers. The test can be described thus: Human whole blood incubations (ACh, norepinephrine, cortisol), then lipid mediator profiling of plasma. It is filed as cell-based. To be noted: for production of n-3 DPA derived mediators in peripheral blood: norepinephrine 0.1-10 μM, cortisol 1-10 μM, healthy volunteers. How it is done: Plasma was obtained from peripheral blood of healthy volunteers and patients following centrifugation at 1500×g for 10 min at room temperature. Descending aortas were weighed, placed in ice-cold methanol and homogenized using a glass dounce.
All samples for LC-MS-MS-based profiling were extracted using solid-phase extraction columns as described in Dalli et al. 2013 and Rathod et al. 2017, the contents of which are incorporated herein by reference.
Prior to sample extraction, deuterated internal standards, representing each region in the chromatographic analysis (500 pg each) were added to facilitate quantification in 4V of cold methanol.
Samples were kept at −20° C. for a minimum of 45 min to allow protein precipitation.
Supernatants were subjected to solid phase extraction, methyl formate fraction collected, brought to dryness and suspended in phase (methanol/water, 1:1, vol/vol) for injection on a Shimadzu LC-20AD HPLC and a Shimadzu SIL-20AC autoinjector, paired with a triple quadrupole mass spectrometer with or without a linear ion trap.
An Agilent Poroshell 120 EC-C18 column (100 mm×4.6 mm×2.7 μm) was kept at 50° C. and mediators eluted using a mobile phase consisting of methanol-water-acetic acid of 20:80:0.01 (vol/vol/vol) that was ramped to 50:50:0.01 (vol/vol/vol) over 0.5 min and then to 80:20:0.01 (vol/vol/vol) from 2 min to 11 min, maintained till 14.5 min and then rapidly ramped to 98:2:0.01 (vol/vol/vol) for the next 0.1 min. This was subsequently maintained at 98:2:0.01 (vol/vol/vol) for 5.4 min, and the flow rate was maintained at 0.5 ml/min. Mass spectrometer was operated using a multiple reaction monitoring method as in Walker M E et al. 13-Series resolvins mediate the leukocyte-platelet actions of atorvastatin and pravastatin in inflammatory arthritis. FASEB J. 2017 August; 31(8):3636-3648, the contents of which are incorporated herein by reference.
Each LM was identified using established criteria including matching retention time to synthetic and authentic materials and at least six diagnostic ions (Walker M E et al. 2017. ibid.)
Calibration curves were obtained for each using synthetic compound mixtures at 0.78, 1.56, 3.12, 6.25, 12.5, 25, 50, 100, and 200 pg that gave linear calibration curves with an r^2 values of 0.98-0.99. […]

[1] abbreviates: whole blood with ACh 0.1 μM, 45 min, 37° C., n = 9.
Where [2] appears, read: whole blood with ACh 0.1 μM, 45 min, n = 9.
The mark [3] stands for this setting: whole blood with Cortisol 1 μM, 45 min, n = 5.
The mark [4] stands for this setting: whole blood with Cortisol 10 μM, 45 min, n = 5.

Regarding `NC[C@H](O)c1ccc(O)c(O)c1` [norepinephrine], the “production of n-3 DPA derived mediators in peripheral blood” value was “did not significantly augment”.
In the case of `CC(=O)OCC[N+](C)(C)C` [ACh, acetylcholine], the “increase in RvD2n-3 DPA compared with blood incubated with vehicle alone” value (whole blood incubated with ACh) was around 160%. Under setting [1], the 7-HDPA concentration is 44.9 pg/mL and 44.9 ± 10.7 pg/mL; the 13-HDPA concentration was 1.9 pg/mL and 1.9 ± 0.6 pg/mL; the 14-HDPA concentration was 137.2 pg/mL and 137.2 ± 25.8 pg/mL; the 17-HDPA concentration was 58.9 pg/mL and 58.9 ± 13.2 pg/mL. Under setting [1], the DPA concentration was 3873.1 pg/mL and 3873.1 ± 706.3 pg/mL; the “MaR1n-3 DPA concentration” value is reported as 0.9 pg/mL; the “PD1n-3 DPA concentration” value worked out at 0.5 pg/mL; the “RvD1n-3 DPA concentration” value was 4.9 pg/mL. Also, under setting [1], the “RvD2n-3 DPA concentration” value is reported as 7.4 pg/mL, the “RvD5n-3 DPA concentration” value is 1.5 pg/mL, the RvT1 concentration worked out at 2.0 pg/mL and the RvT2 concentration is recorded as 1.6 pg/mL. Under setting [1], the RvT3 concentration stood at 1.4 pg/mL and the RvT4 concentration is on record as 1.0 pg/mL. Under setting [2], this molecule displayed a 4HDHA concentration of 19.9 ± 5.1 pg/mL, a 5HEPE concentration of 42.7 ± 11.3 pg/mL, a 5HETE concentration of 69.9 ± 13.5 pg/mL and a 7HDHA concentration of 8.6 ± 3.7 pg/mL. Under setting [2], this molecule displayed a 12HEPE concentration of 402.4 ± 106.0 pg/mL, a 12HETE concentration of 5148.0 ± 1153.2 pg/mL, a 14HDHA concentration of 229.2 ± 41.2 pg/mL and a 15HEPE concentration of 31.3 ± 8.7 pg/mL. Also, under setting [2], the 15HETE concentration is listed as 336.4 ± 95.2 pg/mL, the 17HDHA concentration stood at 103.6 ± 25.9 pg/mL, the 18HEPE concentration is recorded as 36.2 ± 12.2 pg/mL and the AA concentration came to 24205.0 ± 4783.4 pg/mL. Further, under setting [2], the DHA concentration came out at 28104.0 ± 10103.4 pg/mL and the EPA concentration is on record as 5867.2 ± 713.2 pg/mL.
Consider `C[C@]12CCC(=O)C=C1CC[C@@H]1[C@@H]2[C@@H](O)C[C@@]2(C)[C@H]1CC[C@]2(O)C(=O)CO` [Cortisol, cortisol], for which the “production of n-3 DPA derived mediators in peripheral blood” value is “did not significantly augment”. Under setting [3], this molecule came in with a 7-HDPA concentration of 268.9 ± 83.5 pg/mL, a 13-HDPA concentration of 3.2 ± 0.7 pg/mL, a 14-HDPA concentration of 286.2 ± 91.0 pg/mL and a 17-HDPA concentration of 74.9 ± 18.2 pg/mL. Further, under setting [3], the DPA concentration is reported as 24568.2 ± 6300.4 pg/mL, the “MaR1n-3 DPA concentration” value worked out at 0.3 ± 0.2 pg/mL, the “PD1n-3 DPA concentration” value is 1.5 ± 1.1 pg/mL and the “RvD1n-3 DPA concentration” value amounted to 1.9 ± 1.2 pg/mL. Besides, under setting [3], the “RvD2n-3 DPA concentration” value amounted to 1.0 ± 0.9 pg/mL, the “RvD5n-3 DPA concentration” value amounted to 1.1 ± 0.6 pg/mL, the RvT1 concentration came to 0.5 ± 0.2 pg/mL and the RvT2 concentration is 0.1 ± 0.1 pg/mL. Besides, under setting [3], the RvT3 concentration came to 1.6 ± 0.5 pg/mL and the RvT4 concentration is recorded as 2.7 ± 1.5 pg/mL. Under setting [4], this molecule yielded a 7-HDPA concentration of 257.8 ± 109.6 pg/mL, a 13-HDPA concentration of 3.0 ± 0.6 pg/mL, a 14-HDPA concentration of 241.0 ± 40.9 pg/mL and a 17-HDPA concentration of 71.5 ± 17.5 pg/mL. Under setting [4], the DPA concentration came out at 28823.5 ± 8019.0 pg/mL, the “MaR1n-3 DPA concentration” value came out at 0.2 ± 0.2 pg/mL, the “PD1n-3 DPA concentration” value stood at 2.5 ± 1.5 pg/mL and the “RvD1n-3 DPA concentration” value was 1.7 ± 1.5 pg/mL. In addition, under setting [4], the “RvD2n-3 DPA concentration” value is 1.2 ± 0.8 pg/mL, the “RvD5n-3 DPA concentration” value is 1.7 ± 0.3 pg/mL, the RvT1 concentration is given as 0.6 ± 0.2 pg/mL and the RvT2 concentration came out at 0.1 ± 0.0 pg/mL. Under setting [4], this molecule showed a RvT3 concentration of 2.2 ± 1.5 pg/mL and a RvT4 concentration of 3.0 ± 1.8 pg/mL.
